The source of these data is US8138191B2, “Inhibitor compounds and cancer treatment methods” (Critical Outcome Technologies Inc., priority 2007, dated 2012).

pIC50: −log10 of the molar value.

Usually pIC50 stands for the IC50 on a negative log10 scale, so that one unit is a factor of ten. In general, inhibition refers to the relative decrease from the control value, in per cent. Usually bioavailability stands for dose-corrected exposure relative to a reference, in per cent. Read a low bioavailability as poor availability. Broadly, the Tmax is the time from dosing to the highest level.

One series deals with DMS114 cells. The experiment in a line: siRNA target knock-down with COTI-219, cell viability by trypan blue, DMS114. Format: cell-based, human. The following applies: DMS114, 500 nM, 48 h. On the procedure:
In brief, cells DMS114 and SHP77 cells were transfected with gene specific siRNA in the presence or absence of COTI-219 and cell viability determined after 24 to 48 h post-incubation using the trypan blue exclusion method.
Cell cultures were maintained under regular tissue culture conditions and passaged 1-2 times a week as recommended by ATCC. With the exception of the siRNA for Bim (Signal Silence Bim siRNA kit #6460 from Cell Signaling), all other siRNA reagents for gene knock-down experiments was obtained from Ambion (Silencer Negative Control #1 siRNA #AM4611, CDK2 Silencer Select #s204, HRAS Silencer Select #s807, Protein kinase C alpha Silencer Validated #301, MAPK3/Erk Silencer Pre-designed #214749, EGFR Silencer Select #s563, and ERBB2 Silencer Select #s611). […] The transfection method required optimization such that a knock-down of the target gene greater than ˜75% was achieved and confirmed by western blot analyses. […] Following an optimal knock-down level at >75%, 2×10^5 cells were incubated with 500 nM COTI-219 and number of viable cells was measured at 48 h.
Cell viability assays were performed 24 to 48 h following incubation with COTI-219 by the trypan blue exclusion method using a Beckman-Coulter Vi-CELL XR 2.03 automated cell counter. Routine laboratory methods were employed for the production of cellular lysates, protein quantitation, SDS-PAGE and western blotting. […]

Another series concerns the target T1, P-glycoprotein (Homo sapiens, UniProt P08183).
T1 construct: endogenous in cells; host or cells: TC7 cells
The experiment in a line: P-glycoprotein inhibition (TC7, 3H-digoxin substrate). It counts as in vitro ADME.

A further series deals with CYP3A (Homo sapiens, UniProt P08684). The series is described as follows: in vitro. The following applies: both.
Another series deals with T2, CYP2B6 (Homo sapiens, UniProt P20813).
T2 sequence (P20813 1-491): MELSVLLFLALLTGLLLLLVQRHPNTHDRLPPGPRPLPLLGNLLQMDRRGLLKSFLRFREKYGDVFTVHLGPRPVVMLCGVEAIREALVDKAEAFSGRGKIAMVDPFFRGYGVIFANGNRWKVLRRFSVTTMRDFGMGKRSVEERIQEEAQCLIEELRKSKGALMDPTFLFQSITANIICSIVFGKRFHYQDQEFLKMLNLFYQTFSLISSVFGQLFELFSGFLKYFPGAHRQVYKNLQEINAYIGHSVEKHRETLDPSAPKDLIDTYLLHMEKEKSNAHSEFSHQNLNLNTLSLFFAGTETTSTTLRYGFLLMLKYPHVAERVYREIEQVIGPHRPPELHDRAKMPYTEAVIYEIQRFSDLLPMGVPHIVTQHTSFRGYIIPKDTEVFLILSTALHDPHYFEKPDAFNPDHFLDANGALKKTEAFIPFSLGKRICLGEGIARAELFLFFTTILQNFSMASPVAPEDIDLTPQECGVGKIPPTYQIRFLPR
The experiment in a line: in vitro. The note with it: both.

Series [1] can be described thus: Metabolic Stability (liver microsomes, human). Format: in vitro ADME. On the procedure:
(§1) Metabolic stability was determined in human (mixed gender and pool of 50) monkey (male Cynomolgus, pool of 6 or more), dog male, beagle, pool of 4 or more) and rat (male Sprague-Dawley, pool of 100 or more) liver microsomes. […] Four reference substrates (1 μM) were tested simultaneously with COTI-2. […] Peak areas corresponding to COTI-2 were recorded by HPLC-MS/MS. Metabolic stability, expressed as percent of COTI-2 remaining, was calculated by comparing the peak area of COTI-2 at 60 min to time zero.
(Liver microsomes are vesicles of endoplasmic reticulum, rich in cytochrome P450 enzymes.)

The test system of series [2] is A2780 human ovarian tumor xenograft. The series is described as follows: A2780 human ovarian tumor xenograft model. The note with it: for Day 17 CS (Complete Tumor Shrinkage): N 10.
Series [3] can be described thus: Metabolic Stability (liver microsomes, dog, Beagle). The note with it: 1.0E−06 M, 60 min. It counts as in vitro ADME. On the procedure: as §1
A further series can be described thus: in vivo. The note with it: both, rat, in vivo. The source says:
(§2) Pharmacokinetic studies in animal models provide valuable information that enables prediction of metabolism in humans. There are a large variety of animal models that allow for the pharmacokinetic evaluation of compounds by providing information on serum, plasma, and tissue levels. […] As a result, it is important to keep this phenomenon in mind during extrapolations from animal to human metabolism. An initial pharmacokinetic assessment of COTI-2, administered both intravenously and orally, in its parent formulation and as both an oxalate and tartrate salt were evaluated in rats.
(§3) A single oral or IV dose of the COTI-2 free-base or the aforementioned salt forms was administered to groups of male and female rats and blood samples collected and processed at several time-points post-treatment.

A short description of series [4]: In vivo pharmacokinetics in rats, IV dosing. The following applies: IV.
From the text: as §2, §3

Series [5] deals with A549, H460, DMS114 and SHP77 cells. The experiment in a line: Western blot of total mTOR, mTOR phospho-Ser2448/Ser2481 and Akt phospho-Thr308. It counts as cell-based, human. The following applies: 4 h. In general terms: Immunoblotting shows a protein as a band on a membrane.

Chain of CYP3A (P08684 2-503): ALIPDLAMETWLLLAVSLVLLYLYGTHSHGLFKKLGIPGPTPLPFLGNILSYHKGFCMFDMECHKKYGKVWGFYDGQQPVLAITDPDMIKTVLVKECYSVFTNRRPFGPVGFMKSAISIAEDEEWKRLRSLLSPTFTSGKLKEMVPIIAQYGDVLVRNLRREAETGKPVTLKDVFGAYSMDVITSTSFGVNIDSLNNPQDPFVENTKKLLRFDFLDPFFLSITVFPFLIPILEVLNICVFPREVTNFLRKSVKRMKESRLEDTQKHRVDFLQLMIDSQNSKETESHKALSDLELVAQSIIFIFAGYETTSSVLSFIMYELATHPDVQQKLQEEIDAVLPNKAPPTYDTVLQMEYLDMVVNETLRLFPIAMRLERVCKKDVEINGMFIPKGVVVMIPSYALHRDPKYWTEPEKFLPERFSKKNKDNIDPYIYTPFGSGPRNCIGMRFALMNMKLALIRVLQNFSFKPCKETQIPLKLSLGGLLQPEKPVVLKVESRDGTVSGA
T1 sequence (P08183 whole entry): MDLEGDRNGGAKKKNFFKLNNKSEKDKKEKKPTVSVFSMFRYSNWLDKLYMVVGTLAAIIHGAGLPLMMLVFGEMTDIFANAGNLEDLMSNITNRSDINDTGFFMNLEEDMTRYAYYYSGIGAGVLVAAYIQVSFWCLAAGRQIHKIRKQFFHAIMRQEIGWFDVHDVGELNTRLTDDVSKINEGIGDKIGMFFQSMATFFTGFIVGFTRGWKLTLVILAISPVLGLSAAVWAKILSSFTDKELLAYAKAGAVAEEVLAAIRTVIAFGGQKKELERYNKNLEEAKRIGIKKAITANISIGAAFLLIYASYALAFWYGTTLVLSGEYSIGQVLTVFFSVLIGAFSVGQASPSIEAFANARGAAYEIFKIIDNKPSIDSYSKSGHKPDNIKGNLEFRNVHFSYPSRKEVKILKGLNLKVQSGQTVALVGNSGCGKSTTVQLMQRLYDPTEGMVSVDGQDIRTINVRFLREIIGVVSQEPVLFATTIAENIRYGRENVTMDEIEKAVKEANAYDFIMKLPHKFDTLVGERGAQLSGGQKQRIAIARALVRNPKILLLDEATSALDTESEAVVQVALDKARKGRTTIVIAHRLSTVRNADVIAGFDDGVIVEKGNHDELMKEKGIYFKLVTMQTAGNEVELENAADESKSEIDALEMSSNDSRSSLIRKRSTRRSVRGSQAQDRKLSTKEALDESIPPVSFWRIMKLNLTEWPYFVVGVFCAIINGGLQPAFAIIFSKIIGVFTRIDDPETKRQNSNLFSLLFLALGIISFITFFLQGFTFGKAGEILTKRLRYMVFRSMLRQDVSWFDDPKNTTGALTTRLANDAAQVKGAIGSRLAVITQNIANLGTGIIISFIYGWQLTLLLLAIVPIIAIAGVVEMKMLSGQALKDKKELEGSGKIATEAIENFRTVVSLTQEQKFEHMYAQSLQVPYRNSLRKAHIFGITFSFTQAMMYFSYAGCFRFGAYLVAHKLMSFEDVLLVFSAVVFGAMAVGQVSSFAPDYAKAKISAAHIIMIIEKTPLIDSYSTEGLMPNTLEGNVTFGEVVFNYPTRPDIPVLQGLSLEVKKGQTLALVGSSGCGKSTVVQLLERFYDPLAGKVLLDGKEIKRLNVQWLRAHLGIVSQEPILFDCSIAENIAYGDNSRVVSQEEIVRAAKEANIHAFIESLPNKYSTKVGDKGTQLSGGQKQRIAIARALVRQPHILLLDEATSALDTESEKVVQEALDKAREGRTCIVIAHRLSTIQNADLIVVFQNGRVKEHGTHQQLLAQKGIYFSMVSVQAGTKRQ

Take `CN1CCN(C(=S)NN=C2c3ncccc3-c3cccnc32)CC1` [COTI-219]: in the series with DMS114 cells, the “target knock-downs suppressing the action of COTI-219 on apoptosis/cell growth” value is reported as “only the Ras knock-down was able to suppress the action of COTI-219”.

Consider `S=C(N/N=C1/CCCc2cccnc21)N1CCN(c2ccccn2)CC1` [COTI-2], for which the nH on P-glycoprotein (P-glycoprotein Inhibition, TC7, 3H-digoxin substrate) is 0.5. Besides, the pIC50 on P-glycoprotein (TC-7, radiolabelled digoxin, read-out: IC50, Pgp inhibition) was 4.41. For the same compound, the inhibition at 15 min, 10 µM at CYP3A (human liver microsomes, pH 7.4, probe testosterone (10 µM)) is -4%; on CYP3A (liver microsomes, pH 7.4, probe testosterone) it was less than 50%; on CYP2B6 (human liver microsomes, pH 7.4, probe bupropion (10 µM)), 5%; against CYP2B6 (liver microsomes, pH 7.4, probe bupropion) it was less than 50%. For the same compound, the “percent remaining at 60 min” value in series [1] (1.0 μM) worked out at 31%. In addition, the “Mean Parent Remaining” value in series [1] (1.0E−06 M, 60 min, mean) was 31%; in [3] it was 5%. In addition, the “Day 17 Mean tumor weight” value in series [2] (COTI-2 12.5 mg/kg IV) is given as 1,699.2 ± 241.4 mg; in series [2] (COTI-2 50.0 mg/kg IV), 1,622.8 ± 403.0 mg. For the same compound, the “Day 17 TGI” value amounted to 22.04% in series [2] (COTI-2 12.5 mg/kg IV) and 25.76% in series [2] (COTI-2 50.0 mg/kg IV). Further, the “Maximum weight loss (%) (Day #)” value in series [2] (COTI-2 12.5 mg/kg IV, Day 11) was 10.35% (Day 11); in series [2] (COTI-2 50.0 mg/kg IV, Day 8), 8.65% (Day 8). In addition, the “Day 17 CS (Complete Tumor Shrinkage)” value in series [2] (COTI-2 12.5 mg/kg IV) and in series [2] (COTI-2 50.0 mg/kg IV) was 0 throughout. In the series “in vivo”, this compound came in with a bioavailability of 17.7%. In addition, the Tmax in the series “in vivo” (po) turned out to be 4 h. Moreover, in the series “in vivo” (po), the “clearance (CL) from plasma, fold higher than the oxalate and tartrate formulations” value is “approximately 2 fold”. For the same compound, the “rate of absorption (Ka), fold higher than the other formulations” value in the series “in vivo” (po) was “approximately 3 fold”. Moreover, the “clearance (CL) from plasma, fold higher than the oxalate formulation” value in series [4] is given as “approximately 1.4 fold”. Besides, the “clearance (CL) from plasma, fold higher than the tartrate formulation” value in series [4] is reported as approximately 2.3 fold. The “PKB/Akt phospho-Thr308 levels” value in series [5] (A549 cells) is “decreased”. For the same compound, in series [5] (SHP77 cells), the “mTOR phospho-Ser2448 level” value is recorded as “reduced”.
